This assay concerns RSV A2. The assay can be described thus: Screening for RSV inhibition using Viral ToxGlo assay (cytopathic effect inhibition in HEp-2 cells). Type of assay: cell-based, Respiratory Syncytial Virus (RSV). The following applies: human respiratory syncytial virus; RSV A2 in HEp-2 cells, MOI 0.5, 72h p.i., cytopathic effect inhibition relative to virus control, Viral ToxGlo luminescence. As for the experimental part: Protocol for Screening Antiviral Compounds for RSV Inhibition and Cytotoxicity Using Viral ToxGlo Assay
HEp-2 cells were maintained in Eagle's minimum essential medium (EMEM) with Earle's BSS adjusted to contain 2 mM L-glutamine, 10% fetal bovine serum, 100 U/ml penicillin and 100 µg/ml streptomycin. For the purposes of the screening assay they were grown to 90% confluency, trypsinized and recovered. The trypsin was neutralised with cell culture media and cells were centrifuged at 150×g for 5 minutes before discarding the supernatant and resuspending cell pellet in assay media (EMEM with Earle's BSS adjusted to contain 2 mM L-glutamine, 2% fetal bovine serum and 100 U/ml penicillin and 100 µg/ml streptomycin). The cells were seeded into white clear-bottomed cell culture plates at a density of 1.5×10^4 cells/well in 50 μl and 4×10^3 cells/well in 25 μl for 96 well plates and 384 well plates respectively. For the media/background control column assay media only was added. Cell plates were placed in a humid chamber and incubated overnight at 37° C./5% CO2. After overnight incubation cells were checked for confluency and healthy appearance.
Test articles were made up at 10× test concentration in a maximum DMSO concentration of 10% (final assay concentration maximal 1% DMSO) and added to the cell plates in volumes of […] for 96 well plates and 5 μl for 384 well plates. For cell control and virus control wells the test article solvent only was added. Virus or assay media for cytotoxicity test wells and media/cell control wells was added immediately after test articles at an MOI of […] for 96 and 384 well plates respectively. Virus suspension was prepared by thawing RSV A2 frozen stocks and diluting to the required concentration of plaque forming units in assay media on ice.
Cell plates were further incubated inside a humid chamber for 72h p.i at 37° C./5% CO2. After the incubation period cells were observed under the microscope to check for characteristic cytopathic effect in virus control wells and healthy cells in the cell control wells. After plates were adjusted to room temperature 20/40 μl Viral ToxGlo (Promega) was added to each well of the 384/96 well cell plates. Plates were incubated at room temperature, protected from light on a plate rocker for 20 minutes before measuring the luminescence on a spectrophotometer (Biotek Synergy HTX).
For `CC(C)NC(=O)c1ccccc1Nc1ccc(C(=O)N=C2NCCN2)cc1C1CC1` [Compound 70, 3-cyclopropyl-N-[(2E)-imidazolidin-2-ylidene]-4-({2-[(propan-2-yl)carbamoyl]phenyl}amino)benzamide], the concentration for a half-maximal effect (EC50) turned out to be 1150 nM.

For the molecule `CC(C)NC(=O)c1cccc(Nc2ccc(C(=O)N=C3N(C)CCN3C)cc2C(C)(C)C)c1` [Compound 71, 3-tert-butyl-N-[(2Z)-1,3-dimethylimidazolidin-2-ylidene]-4-({3-[(propan-2-yl)carbamoyl]phenyl}amino)benzamide], the EC50 turned out to be 1170 nM. As for `CC(C)C(=O)Nc1cccc(Nc2ccc(C(=O)N=C3NCCN3)cc2Cl)c1` [Compound 72, 3-chloro-N-[(2E)-imidazolidin-2-ylidene]-4-{[3-(2-methylpropanamido)phenyl]amino}benzamide], the EC50 stood at 1230 nM. With `O=C(N=C1NCCN1)c1ccc(Nc2cc(F)cc(C(=O)N3CCOCC3)c2)c(C2CC2)c1` [Compound 73, 3-cyclopropyl-4-{[3-fluoro-5-(morpholine-4-carbonyl)phenyl]amino}-N-[(2Z)-imidazolidin-2-ylidene]benzamide] the figure was 1290 nM; with `CC(C)(C)c1cc(C(=O)N=C2NCCN2)ccc1Nc1cc(C(=O)NCCC2CCOCC2)ccn1` [Compound 74, 2-[(2-tert-butyl-4-{[(2E)-imidazolidin-2-ylidene]carbamoyl}phenyl)amino]-N-[2-(oxan-4-yl)ethyl]pyridine-4-carboxamide], 1310 nM. In the case of `CC(C)NC(=O)c1cccc(Nc2c(F)cc(C(=O)N=C3NCCN3)cc2C2CC2)c1` [Compound 91, 3-cyclopropyl-5-fluoro-N-[(2Z)-imidazolidin-2-ylidene]-4-({3-[(propan-2-yl)carbamoyl]phenyl}amino)benzamide] it was 2 nM; in that of `CC(C)NC(=O)c1cccc(Nc2ccc(C(=O)N=C3NCCN3)cc2C2CC2)c1-c1ccoc1` [Compound 92, 3-[(2-cyclopropyl-4-{[(2Z)-imidazolidin-2-ylidene]carbamoyl}phenyl)amino]-2-(furan-3-yl)-N-(propan-2-yl)benzamide], 277 nM; in that of `O=C(N=C1NCCN1)c1ccc(Nc2cccc(C(=O)NC3CCS(=O)(=O)CC3)c2Cl)c(C2CC2)c1` [Compound 94, 4-({2-chloro-3-[(1,1-dioxo-1λ^6-thian-4-yl)carbamoyl]phenyl}amino)-3-cyclopropyl-N-[(2E)-imidazolidin-2-ylidene]benzamide], 240 nM.

With `O=C(N=C1NCCN1)c1ccc(Nc2cccc(C(=O)NC3CCOC3)c2)c(C2CCCC2)c1` (stereo not drawn) [Compound 95, 3-cyclopentyl-N-[(2Z)-imidazolidin-2-ylidene]-4-({3-[(oxolan-3-yl)carbamoyl]phenyl}amino)benzamide], the EC50 amounted to 95.9 nM. In the case of `O=C(N=C1NCCN1)c1ccc(Nc2cccc(C(=O)NC3CCOCC3)c2)c(C2CCCC2)c1` [Compound 96, 3-cyclopentyl-N-[(2Z)-imidazolidin-2-ylidene]-4-({3-[(oxan-4-yl)carbamoyl]phenyl}amino)benzamide] it was 839 nM; in that of `O=C(N=C1NCCN1)c1ccc(Nc2cccc(C(=O)N3CCOCC3)c2Cl)c(C2CCCO2)c1` (stereo not drawn) [Compound 97, 4-{[2-chloro-3-(morpholine-4-carbonyl)phenyl]amino}-N-[(2E)-imidazolidin-2-ylidene]-3-(oxolan-2-yl)benzamide], 51 nM. In the case of `CC(C)NC(=O)c1cccc(Nc2ccc(C(=O)N=C3NCCN3)cc2C2CC2)c1F` [Compound 98, 3-cyclopropyl-4-({2-fluoro-3-[(propan-2-yl)carbamoyl]phenyl}amino)-N-[(2Z)-imidazolidin-2-ylidene]benzamide] it was 228 nM.

Take `CC1(NC(=O)c2nccc(Nc3c(F)cc(C(=O)N=C4NCCN4)cc3C3CC3)c2F)CC1` [Compound 99, 4-[(2-cyclopropyl-6-fluoro-4-{[(2Z)-imidazolidin-2-ylidene]carbamoyl}phenyl)amino]-3-fluoro-N-(1-methylcyclopropyl)pyridine-2-carboxamide]: the EC50 was 35.3 nM. In the case of `CC(C)CCC(=O)Nc1ccccc1Oc1ccc(C(=O)N=C2NCCN2)cc1C1CC1` [Compound 100, 3-cyclopropyl-N-[(2E)-imidazolidin-2-ylidene]-4-[2-(4-methylpentanamido)phenoxy]benzamide] it was 458 nM; in that of `CC1(NC(=O)c2cccc(Nc3ccc(C(=O)N=C4NCCN4)cc3S(C)(=O)=O)c2Cl)CC1` [Compound 102, 2-chloro-3-[(4-{[(2Z)-imidazolidin-2-ylidene]carbamoyl}-2-methanesulfonylphenyl)amino]-N-(1-methylcyclopropyl)benzamide], 819 nM; in that of `O=C(N=C1NCCN1)c1ccc(Nc2cccc(C(=O)N3CCS(=O)(=O)CC3)c2Cl)c(C2CC2)c1` [Compound 103, 4-{[2-chloro-3-(1,1-dioxo-1)^6-thiomorpholine-4-carbonyl)phenyl]amino}-3-cyclopropyl-N-[(2E)-imidazolidin-2-ylidene]benzamide], 19.4 nM. With `CC(C)C1COCCN1C(=O)c1cccc(Nc2ccc(C(=O)N=C3NCCN3)cc2C2CC2)c1Cl` (stereo not drawn) [Compound 104, 4-({2-chloro-3-[3-(propan-2-yl)morpholine-4-carbonyl]phenyl}amino)-3-cyclopropyl-N-[(2Z)-imidazolidin-2-ylidene]benzamide] the figure was 12.4 nM; with `CC(C)C1CN(C(=O)c2cccc(Nc3ccc(C(=O)N=C4NCCN4)cc3C3CC3)c2Cl)CCO1` (stereo not drawn) [Compound 105, 4-({2-chloro-3-[2-(propan-2-yl)morpholine-4-carbonyl]phenyl}amino)-3-cyclopropyl-N-[(2Z)-imidazolidin-2-ylidene]benzamide], 3.2 nM; with `Cc1cc(C(=O)N=C2NCCN2)cc(C2CC2)c1Nc1cccc(C(=O)NC(C)C)c1` [Compound 106, 3-cyclopropyl-N-[(2Z)-imidazolidin-2-ylidene]-5-methyl-4-({3-[(propan-2-yl)carbamoyl]phenyl}amino)benzamide], 5.7 nM. As to `CC(C)CC1(NC(=O)c2cccc(Nc3ccc(C(=O)N=C4NCCN4)cc3C3CC3)c2)CC1` [Compound 107, 3-cyclopropyl-N-[(2Z)-imidazolidin-2-ylidene]-4-[(3-{[1-(2-methylpropyl)cyclopropyl]carbamoyl}phenyl)amino]benzamide], the EC50 came to 14 nM. In the case of `O=C(N=C1NCCN1)c1ccc(Nc2cccc(C(=O)NCC3CCCO3)c2Cl)c(C2CC2)c1` (stereo not drawn) [Compound 109, 4-[(2-chloro-3-{[(oxolan-2-yl)methyl]carbamoyl}phenyl)amino]-3-cyclopropyl-N-[(2E)-imidazolidin-2-ylidene]benzamide] it was 45 nM; in that of `CC(=O)N1CCN/C1=N\C(=O)c1ccc(Nc2cccc(NC(=O)C(C)C)c2)c(C2CC2)c1` [Compound 110, N-[(2E)-1-acetylimidazolidin-2-ylidene]-3-cyclopropyl-4-{[3-(2-methylpropanamido)phenyl]amino}benzamide], 324 nM. In the case of `CC(C)(C)C1(NC(=O)c2cccc(Nc3ccc(C(=O)N=C4NCCN4)cc3C3CC3)c2)CC1` [Compound 111, 4-({3-[(1-tert-butylcyclopropyl)carbamoyl]phenyl}amino)-3-cyclopropyl-N-[(2Z)-imidazolidin-2-ylidene]benzamide] it was 30.4 nM; in that of `CC(C)NC(=O)c1cc(C#N)cc(Nc2ccc(C(=O)N=C3NCCN3)cc2C2CC2)c1` [Compound 112, 4-({3-cyano-5-[(propan-2-yl)carbamoyl]phenyl}amino)-3-cyclopropyl-N-[imidazolidin-2-ylidene]benzamide], 710 nM; in that of `CC(C)C(=O)Nc1cccc(Nc2ccc(C(=O)N=C3NCCN3CC(F)F)cc2C2CC2)c1` [Compound 113, 3-cyclopropyl-N-[1-(2,2-difluoroethyl)imidazolidin-2-ylidene]-4-{[3-(2-methylpropanamido)phenyl]amino}benzamide], 59.9 nM. In the case of `O=C(N=C1NCCN1)c1ccc(Nc2cccc(C(=O)NC3(C(F)(F)F)CC3)c2Cl)c(C2CC2)c1` [Compound 114, 4-[(2-chloro-3-{[1-(trifluoromethyl)cyclopropyl]carbamoyl}phenyl)amino]-3-cyclopropyl-N-[imidazolidin-2-ylidene]benzamide] it was 32.6 nM; in that of `O=C(N=C1NCCN1)c1ccc(Nc2cccc(C(=O)N3CCOCC3)c2C(F)(F)F)c(C2CC2)c1` [Compound 115, 3-cyclopropyl-N-[imidazolidin-2-ylidene]-4-{[3-(morpholine-4-carbonyl)-2-(trifluoromethyl)phenyl]amino}benzamide], 29.6 nM.

Broadly, the EC50 is the concentration needed to bring the measured effect to its halfway point.

Values taken from patent US12617756B2 (ABIVAX, priority 2019, dated 2026).
